Test results published in ChEMBL document CHEMBL1201862, “PubChem BioAssay data set” (2004).
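Cells were grown in 96-well plates and exposed to each compound for 48 hours at five concentrations; endpoints were interpolated linearly between bracketing concentrations, or set to the highest concentration if not reached. GI50: concentration for 50% inhibition of growth.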 The source made the active and inactive calls. Cut-off read from the data, not from the text of the source: active = GI50 up to about 1.1 µM and inactive = higher.

Columns and labels:
Assay in all cases: NCI-60 cell line screen, 48 h
786-0 = test system: 786-0
A498 = test system: A498
A549 = test system: A549
ACHN = test system: ACHN
BT-549 = test system: BT-549
CAKI-1 = test system: CAKI-1
CCRF-CEM = test system: CCRF-CEM
COLO 205 = test system: COLO 205
DU-145 = test system: DU-145
EKVX = test system: EKVX
HCT-116 = test system: HCT-116
HL-60 = test system: HL-60
HOP-62 = test system: HOP-62
HOP-92 = test system: HOP-92
HT-29 = test system: HT-29
Hs-578T = test system: Hs-578T
IGROV-1 = test system: IGROV-1
K562 = test system: K562
KM12 = test system: KM12
LOX IMVI = test system: LOX IMVI
M14 = test system: M14
MCF7 = test system: MCF7
MDA-MB-231 = test system: MDA-MB-231
MDA-MB-435 = test system: MDA-MB-435
MDA-N = test system: MDA-N
MOLT-4 = test system: MOLT-4
Malme-3M = test system: Malme-3M
NCI-H226 = test system: NCI-H226
NCI-H23 = test system: NCI-H23
NCI-H522 = test system: NCI-H522
NCI/ADR-RES = test system: NCI/ADR-RES
OVCAR-3 = test system: OVCAR-3
OVCAR-5 = test system: OVCAR-5
OVCAR-8 = test system: OVCAR-8
PC-3 = test system: PC-3
RPMI-8226 = test system: RPMI-8226
RXF 393 = test system: RXF 393
SF-268 = test system: SF-268
SF-295 = test system: SF-295
SK-MEL-28 = test system: SK-MEL-28
SK-MEL-2 = test system: SK-MEL-2
SK-MEL-5 = test system: SK-MEL-5
SK-OV-3 = test system: SK-OV-3
SN12C = test system: SN12C
SNB-75 = test system: SNB-75
SR = test system: SR
SW-620 = test system: SW-620
T47D = test system: T47D
TK-10 = test system: TK-10
U-251 = test system: U-251
UACC-257 = test system: UACC-257
UACC-62 = test system: UACC-62
UO-31 = test system: UO-31
HCT-15 = test system: HCT-15
NCI-H460 = test system: NCI-H460
OVCAR-4 = test system: OVCAR-4
SF-539 = test system: SF-539
SNB-19 = test system: SNB-19

COC(=O)[C@@H]1CO[C@H](C(C)(C)C)N1C(=O)N1C=CC(=O)C[C@H]1C
GI50 (786-0): > 100 µM (inactive) | GI50 (A498): > 100 µM (inactive) | GI50 (A549): > 100 µM (inactive) | GI50 (ACHN): > 100 µM (inactive) | GI50 (BT-549): > 100 µM (inactive) | GI50 (CAKI-1): > 100 µM (inactive) | GI50 (CCRF-CEM): > 100 µM (inactive) | GI50 (COLO 205): > 100 µM (inactive) | GI50 (DU-145): > 100 µM (inactive) | GI50 (EKVX): > 100 µM (inactive) | GI50 (HCT-116): > 100 µM (inactive) | GI50 (HL-60): > 100 µM (inactive) | GI50 (HOP-62): > 100 µM (inactive) | GI50 (HOP-92): > 100 µM (inactive) | GI50 (HT-29): > 100 µM (inactive) | GI50 (Hs-578T): > 100 µM (inactive) | GI50 (IGROV-1): > 100 µM (inactive) | GI50 (K562): > 100 µM (inactive) | GI50 (KM12): > 100 µM (inactive) | GI50 (LOX IMVI): > 100 µM (inactive) | GI50 (M14): > 100 µM (inactive) | GI50 (MCF7): > 100 µM (inactive) | GI50 (MDA-MB-231): > 100 µM (inactive) | GI50 (MDA-MB-435): > 100 µM (inactive) | GI50 (MDA-N): > 100 µM (inactive) | GI50 (MOLT-4): > 10 µM (inactive) | GI50 (Malme-3M): > 100 µM (inactive) | GI50 (NCI-H226): > 100 µM (inactive) | GI50 (NCI-H23): > 100 µM (inactive) | GI50 (NCI-H522): > 100 µM (inactive) | GI50 (NCI/ADR-RES): > 100 µM (inactive) | GI50 (OVCAR-3): > 100 µM (inactive) | GI50 (OVCAR-5): > 100 µM (inactive) | GI50 (OVCAR-8): > 100 µM (inactive) | GI50 (PC-3): > 100 µM (inactive) | GI50 (RPMI-8226): > 100 µM (inactive) | GI50 (RXF 393): > 100 µM (inactive) | GI50 (SF-268): > 100 µM (inactive) | GI50 (SF-295): > 100 µM (inactive) | GI50 (SK-MEL-28): > 100 µM (inactive) | GI50 (SK-MEL-2): > 100 µM (inactive) | GI50 (SK-MEL-5): > 100 µM (inactive) | GI50 (SK-OV-3): > 100 µM (inactive) | GI50 (SN12C): > 100 µM (inactive) | GI50 (SNB-75): > 100 µM (inactive) | GI50 (SR): > 100 µM (inactive) | GI50 (SW-620): > 100 µM (inactive) | GI50 (T47D): > 100 µM (inactive) | GI50 (TK-10): > 100 µM (inactive) | GI50 (U-251): > 100 µM (inactive) | GI50 (UACC-257): > 100 µM (inactive) | GI50 (UACC-62): > 100 µM (inactive) | GI50 (UO-31): > 100 µM (inactive)

Oc1ccc(Cc2cc(Cl)cc(Cl)c2O)cc1Cl
GI50 (786-0): 20.3 µM (inactive) | GI50 (A498): 19.5 µM (inactive) | GI50 (A549): 19.1 µM (inactive) | GI50 (ACHN): 17.4 µM (inactive) | GI50 (BT-549): 18.8 µM (inactive) | GI50 (CAKI-1): 22.6 µM (inactive) | GI50 (COLO 205): 19 µM (inactive) | GI50 (DU-145): 10.1 µM (inactive) | GI50 (EKVX): 19.4 µM (inactive) | GI50 (HCT-116): 18.7 µM (inactive) | GI50 (HCT-15): 16.9 µM | GI50 (HL-60): 1.04 µM (active) | GI50 (HOP-62): 19.2 µM (inactive) | GI50 (HOP-92): 18.2 µM (inactive) | GI50 (HT-29): 20.1 µM (inactive) | GI50 (Hs-578T): 18 µM (inactive) | GI50 (IGROV-1): 17.9 µM (inactive) | GI50 (K562): 15.5 µM (inactive) | GI50 (KM12): 20 µM (inactive) | GI50 (LOX IMVI): 16.6 µM (inactive) | GI50 (M14): 15.7 µM (inactive) | GI50 (MCF7): 18.1 µM (inactive) | GI50 (MDA-MB-231): 18.6 µM (inactive) | GI50 (MDA-MB-435): 8.83 µM (inactive) | GI50 (MDA-N): 8.93 µM (inactive) | GI50 (MOLT-4): 20 µM (inactive) | GI50 (Malme-3M): 16.8 µM (inactive) | GI50 (NCI-H226): 21.1 µM (inactive) | GI50 (NCI-H23): 16.3 µM (inactive) | GI50 (NCI-H460): 17.8 µM (inactive) | GI50 (NCI-H522): 16.7 µM (inactive) | GI50 (NCI/ADR-RES): 18.3 µM (inactive) | GI50 (OVCAR-3): 18.7 µM (inactive) | GI50 (OVCAR-4): 23.3 µM (inactive) | GI50 (OVCAR-5): 18.4 µM (inactive) | GI50 (OVCAR-8): 19 µM (inactive) | GI50 (PC-3): 17.7 µM (inactive) | GI50 (RPMI-8226): 22.3 µM (inactive) | GI50 (RXF 393): 13.4 µM (inactive) | GI50 (SF-268): 16.6 µM (inactive) | GI50 (SF-295): 19 µM (inactive) | GI50 (SF-539): 17.1 µM (inactive) | GI50 (SK-MEL-28): 17.3 µM (inactive) | GI50 (SK-MEL-2): 15.5 µM (inactive) | GI50 (SK-MEL-5): 17.5 µM (inactive) | GI50 (SK-OV-3): 27.1 µM (inactive) | GI50 (SN12C): 15.1 µM (inactive) | GI50 (SNB-19): 16.9 µM (inactive) | GI50 (SNB-75): < 0.01 µM (active) | GI50 (SR): 14.2 µM (inactive) | GI50 (SW-620): 16.6 µM (inactive) | GI50 (T47D): 18.4 µM (inactive) | GI50 (TK-10): 16.3 µM (inactive) | GI50 (U-251): 19.2 µM (inactive) | GI50 (UACC-257): 15.9 µM (inactive) | GI50 (UACC-62): 14.7 µM (inactive) | GI50 (UO-31): 15.7 µM (inactive)
